Measured values published in ChEMBL document CHEMBL4346715, “Antibacterial activity study of 1,2,4-triazole derivatives” (Eur J Med Chem, 2019).
In brackets after ≈: the same amount, converted by molar mass.

Columns and labels:
Format in all cases: functional
Candida albicans [1] = experiment: Antifungal activity against Candida albicans ATCC 50193 after 24 hrs by microdilution method; settings: ATCC 50193, 24 h
Enterococcus faecalis = experiment: Antibacterial activity against Enterococcus faecalis ATCC 29212 after 24 hrs by microdilution method; settings: ATCC 29212, 24 h
Pseudomonas aeruginosa [2] = experiment: Antibacterial activity against Pseudomonas aeruginosa ATCC 27853 after 24 hrs by microdilution method; settings: ATCC 27853, 24 h
Bacillus cereus = experiment: Antibacterial activity against Bacillus cereus ATCC 10876 after 24 hrs by microdilution method; settings: ATCC 10876, 24 h
Proteus mirabilis = experiment: Antibacterial activity against Proteus mirabilis ATCC 35659 after 24 hrs by microdilution method; settings: ATCC 35659, 24 h
Staphylococcus aureus [3] = experiment: Antibacterial activity against Staphylococcus aureus ATCC 25923 after 24 hrs by microdilution method; settings: ATCC 25923, 24 h
Escherichia coli [4] = experiment: Antibacterial activity against Escherichia coli ATCC 25922 after 24 hrs by microdilution method; settings: ATCC 25922, 24 h
Aspergillus brasiliensis = experiment: Antifungal activity against Aspergillus brasiliensis ATCC 16404 after 24 hrs by microdilution method; settings: ATCC 16404, 24 h
Staphylococcus aureus [5] = experiment: Antibacterial activity against methicillin-resistant Staphylococcus aureus incubated for 18 hrs post 30 mins pre-diffusion by disk diffusion method
Bacillus anthracis = experiment: Antibacterial activity against Bacillus anthracis incubated for 18 hrs post 30 mins pre-diffusion by disk diffusion method
Listeria monocytogenes [6] = experiment: Antibacterial activity against Listeria monocytogenes ATCC 35152 after 24 hrs by broth microdilution method; settings: ATCC 35152, 24 h
Listeria monocytogenes [7] = experiment: Potency index, ratio of ciprofloxacin MIC to test compound MIC for Listeria monocytogenes ATCC 35152 after 24 hrs by broth microdilution method
Pseudomonas aeruginosa [8] = experiment: Potency index, ratio of ciprofloxacin MIC to test compound MIC for Pseudomonas aeruginosa ATCC 27853 after 24 hrs by broth microdilution method
Pseudomonas aeruginosa [9] = experiment: Antibacterial activity against Pseudomonas aeruginosa ATCC 27853 after 24 hrs by broth microdilution method; settings: ATCC 27853, 24 h
Escherichia coli [10] = experiment: Antibacterial activity against Escherichia coli incubated for 18 hrs post 30 mins pre-diffusion by disk diffusion method
Bacillus subtilis = experiment: Antibacterial activity against Bacillus subtilis incubated for 18 hrs post 30 mins pre-diffusion by disk diffusion method
Micrococcus luteus = experiment: Antibacterial activity against Micrococcus luteus incubated for 18 hrs post 30 mins pre-diffusion by disk diffusion method
Listeria innocua = experiment: Antibacterial activity against Listeria innocua incubated for 18 hrs post 30 mins pre-diffusion by disk diffusion method
Pseudomonas aeruginosa [11] = experiment: Antibacterial activity against Pseudomonas aeruginosa
Aspergillus niger = experiment: Antifungal activity against Aspergillus niger
Staphylococcus aureus [12] = experiment: Antibacterial activity against Staphylococcus aureus
Candida albicans [13] = experiment: Antifungal activity against Candida albicans

Molecule	MIC (Candida albicans [1]) [µg/mL]	MIC (Enterococcus faecalis) [µg/mL]	MIC (Pseudomonas aeruginosa [2]) [µg/mL]	MIC (Bacillus cereus) [µg/mL]	MIC (Proteus mirabilis) [µg/mL]	MIC (Staphylococcus aureus [3]) [µg/mL]	MIC (Escherichia coli [4]) [µg/mL]	MIC (Aspergillus brasiliensis) [µg/mL]	also measured
CCCCCCCCCCCCCCn1nnc(-c2n[nH]c(=S)n2N)c1-c1n[nH]c(=S)n1N	1 to 16 (≈ 2.03 to 32.4 µM)	1 to 16 (≈ 2.03 to 32.4 µM)	1 to 16 (≈ 2.03 to 32.4 µM)	1 to 16 (≈ 2.03 to 32.4 µM)	1 to 16 (≈ 2.03 to 32.4 µM)	1 to 16 (≈ 2.03 to 32.4 µM)	1 to 16 (≈ 2.03 to 32.4 µM)	1 to 16 (≈ 2.03 to 32.4 µM)	
CCCCCCCCCCCCCCn1nnc(-c2n[nH]c(=S)n2-c2ccccc2)c1-c1n[nH]c(=S)n1-c1ccccc1	1 to 128 (≈ 1.62 to 208 µM)	1 to 128 (≈ 1.62 to 208 µM)	1 to 128 (≈ 1.62 to 208 µM)	1 to 128 (≈ 1.62 to 208 µM)	1 to 128 (≈ 1.62 to 208 µM)	1 to 128 (≈ 1.62 to 208 µM)	1 to 128 (≈ 1.62 to 208 µM)	1 to 128 (≈ 1.62 to 208 µM)	
POLYMYXIN B									MIC (Staphylococcus aureus [5]): 31 to 1000 µg/mL; MIC (Bacillus anthracis): 31 to 1000 µg/mL
COc1cccc(/C=N/n2c(S)nnc2-c2sc(-c3ccccc3)nc2C)c1									MIC (Listeria monocytogenes [6]): 1.95 µg/mL (≈ 4.78 µM); Ratio (Listeria monocytogenes [7]): 2; Ratio (Pseudomonas aeruginosa [8]): 2; MIC (Pseudomonas aeruginosa [9]): 1.95 µg/mL (≈ 4.78 µM)
COc1ccccc1/C=N/n1c(S)nnc1-c1sc(-c2ccccc2)nc1C									MIC (Listeria monocytogenes [6]): 1.95 µg/mL (≈ 4.78 µM); Ratio (Listeria monocytogenes [7]): 2; Ratio (Pseudomonas aeruginosa [8]): 2; MIC (Pseudomonas aeruginosa [9]): 1.95 µg/mL (≈ 4.78 µM)
Cc1nc(-c2ccccc2)sc1-c1nnc(S)n1/N=C/c1ccc([N+](=O)[O-])cc1									MIC (Listeria monocytogenes [6]): 1.95 µg/mL (≈ 4.62 µM); Ratio (Listeria monocytogenes [7]): 2; Ratio (Pseudomonas aeruginosa [8]): 2; MIC (Pseudomonas aeruginosa [9]): 1.95 µg/mL (≈ 4.62 µM)
COC(=O)c1ncn(CN(CCCO)Cn2cnc(C(=O)OC)n2)n1									MIC (Escherichia coli [10]): 7 to 15 µg/mL (≈ 19.8 to 42.5 µM); MIC (Bacillus subtilis): 7 to 15 µg/mL (≈ 19.8 to 42.5 µM); MIC (Micrococcus luteus): 7 to 15 µg/mL (≈ 19.8 to 42.5 µM); MIC (Listeria innocua): 7 to 15 µg/mL (≈ 19.8 to 42.5 µM)
Cc1nc(-c2ccccc2)sc1-c1nnc(S)n1/N=C/c1cccs1									MIC (Listeria monocytogenes [6]): 1.95 µg/mL (≈ 5.08 µM); Ratio (Listeria monocytogenes [7]): 2; Ratio (Pseudomonas aeruginosa [8]): 2; MIC (Pseudomonas aeruginosa [9]): 1.95 µg/mL (≈ 5.08 µM)
CC(C)N(Cc1ncn(C)n1)Cc1ncn(C)n1									MIC (Escherichia coli [10]): 7 to 15 µg/mL (≈ 28.1 to 60.2 µM); MIC (Bacillus subtilis): 7 to 15 µg/mL (≈ 28.1 to 60.2 µM); MIC (Micrococcus luteus): 7 to 15 µg/mL (≈ 28.1 to 60.2 µM); MIC (Listeria innocua): 7 to 15 µg/mL (≈ 28.1 to 60.2 µM)
CCCCCCCCCCn1nnc(-c2n[nH]c(=S)n2-c2ccccc2)c1-c1n[nH]c(=S)n1-c1ccccc1	1 to 128 (≈ 1.79 to 229 µM)	1 to 128 (≈ 1.79 to 229 µM)	1 to 128 (≈ 1.79 to 229 µM)	1 to 128 (≈ 1.79 to 229 µM)	1 to 128 (≈ 1.79 to 229 µM)	1 to 128 (≈ 1.79 to 229 µM)	1 to 128 (≈ 1.79 to 229 µM)	1 to 128 (≈ 1.79 to 229 µM)	
CCCCCCCCCCCCn1nnc(-c2n[nH]c(=S)n2N)c1-c1n[nH]c(=S)n1N	1 to 128 (≈ 2.15 to 275 µM)	1 to 128 (≈ 2.15 to 275 µM)	1 to 128 (≈ 2.15 to 275 µM)	1 to 128 (≈ 2.15 to 275 µM)	1 to 128 (≈ 2.15 to 275 µM)	1 to 128 (≈ 2.15 to 275 µM)	1 to 128 (≈ 2.15 to 275 µM)	1 to 128 (≈ 2.15 to 275 µM)	
Cn1cnc(CN(CCCO)Cc2ncn(C)n2)n1									MIC (Escherichia coli [10]): 7 to 15 µg/mL (≈ 26.4 to 56.5 µM); MIC (Bacillus subtilis): 7 to 15 µg/mL (≈ 26.4 to 56.5 µM); MIC (Micrococcus luteus): 7 to 15 µg/mL (≈ 26.4 to 56.5 µM); MIC (Listeria innocua): 7 to 15 µg/mL (≈ 26.4 to 56.5 µM)
CO[C@H]1/C=C/O[C@@]2(C)Oc3c(C)c(O)c4c(O)c(c(/C=N/N5CCN(C)CC5)c(O)c4c3C2=O)NC(=O)/C(C)=C\C=C\[C@H](C)[C@H](O)[C@@H](C)[C@@H](O)[C@@H](C)[C@H](OC(C)=O)[C@@H]1C [RIFAMPIN]									MIC (Staphylococcus aureus [5]): 31 to 1000 µg/mL (≈ 37.7 to 1220 µM); MIC (Bacillus anthracis): 31 to 1000 µg/mL (≈ 37.7 to 1220 µM)
CN[C@H](CC(C)C)C(=O)N[C@H]1C(=O)N[C@@H](CC(N)=O)C(=O)N[C@H]2C(=O)N[C@H]3C(=O)N[C@H](C(=O)N[C@H](C(=O)O)c4cc(O)cc(O)c4-c4cc3ccc4O)[C@H](O)c3ccc(c(Cl)c3)Oc3cc2cc(c3O[C@@H]2O[C@H](CO)[C@@H](O)[C@H](O)[C@H]2O[C@H]2C[C@](C)(N)[C@H](O)[C@H](C)O2)Oc2ccc(cc2Cl)[C@H]1O [VANCOMYCIN]									MIC (Staphylococcus aureus [5]): 8 µg/mL (≈ 5.52 µM); MIC (Bacillus anthracis): 8 µg/mL (≈ 5.52 µM)
CCCCCCCCCCCCn1nnc(-c2n[nH]c(=S)n2-c2ccccc2)c1-c1n[nH]c(=S)n1-c1ccccc1	1 to 128 (≈ 1.7 to 218 µM)	1 to 128 (≈ 1.7 to 218 µM)	1 to 128 (≈ 1.7 to 218 µM)	1 to 128 (≈ 1.7 to 218 µM)	1 to 128 (≈ 1.7 to 218 µM)	1 to 128 (≈ 1.7 to 218 µM)	1 to 128 (≈ 1.7 to 218 µM)	1 to 128 (≈ 1.7 to 218 µM)	
CCn1cc(C(=O)O)c(=O)c2cc(F)c(N3CCNCC3)cc21 [NORFLOXACIN]									MIC (Staphylococcus aureus [5]): 31 to 1000 µg/mL (≈ 97.1 to 3130 µM); MIC (Pseudomonas aeruginosa [11]): 11.7 µg/mL (≈ 36.6 µM); MIC (Aspergillus niger): 10.2 µg/mL (≈ 31.9 µM); MIC (Bacillus anthracis): 31 to 1000 µg/mL (≈ 97.1 to 3130 µM); MIC (Staphylococcus aureus [12]): 14.1 µg/mL (≈ 44.2 µM); MIC (Candida albicans [13]): 7.8 µg/mL (≈ 24.4 µM)
CCCCCCCCCCCCCCCCn1nnc(-c2n[nH]c(=S)n2-c2ccccc2)c1-c1n[nH]c(=S)n1-c1ccccc1	1 to 128 (≈ 1.55 to 199 µM)	1 to 128 (≈ 1.55 to 199 µM)	1 to 128 (≈ 1.55 to 199 µM)	1 to 128 (≈ 1.55 to 199 µM)	1 to 128 (≈ 1.55 to 199 µM)	1 to 128 (≈ 1.55 to 199 µM)	1 to 128 (≈ 1.55 to 199 µM)	1 to 128 (≈ 1.55 to 199 µM)	
